According to ChEMBL document CHEMBL5500405, “Design and Synthesis of Clinical Candidate PF-06852231 (CVL-231): A Brain Penetrant, Selective, Positive Allosteric Modulator of the M4 Muscarinic Acetylcholine Receptor” (J Med Chem, 2024):
Blank lines part the entries; values can stand above or below the compound they belong to.

Legend:
[1] = Lipophilicity, logD of compound by shake flask method; format: physicochemical; settings: octanol/water
[2] = Stability of compound at pH 1 assessed as half-life by 1H NMR assay; format: physicochemical; settings: buffer
[3] = Unbound plasma concentration in mouse at 10 mg/kg, sc; format: ADME, organism-based; settings: in vivo
[4] = Unbound brain concentration in mouse at […], sc; format: ADME, organism-based; settings: in vivo, dose 3.2 mg/kg
[5] = Unbound plasma concentration in mouse at 1 mg/kg, sc; format: ADME, organism-based; settings: in vivo
[6] = Unbound brain concentration in mouse at 1 mg/kg, sc; format: ADME, organism-based; settings: in vivo
[7] = Unbound plasma concentration in mouse at 32 mg/kg, sc; format: ADME, organism-based; settings: in vivo
[8] = Unbound brain concentration in mouse at 10 mg/kg, sc; format: ADME, organism-based; settings: in vivo
[9] = Unbound brain concentration in mouse at 32 mg/kg, sc; format: ADME, organism-based; settings: in vivo
[10] = Unbound plasma concentration in mouse at […], sc; format: ADME, organism-based; settings: in vivo, dose 3.2 mg/kg

logD [1]: 1.84
Compound: Cc1cc(C)c2c(n1)CN(C(=O)CC1CC1)C2

half-life [2]: 9 min
Compound: Cc1cc(C)c2c(n1)CN(C(=O)CC1CN(c3ccccc3)C1)C2

Cp(f) [3]: 219 nM | Drug uptake(free) [4]: 22 nM | Cp(f) [5]: 26 nM | Drug uptake(free) [6]: 13 nM | Cp(f) [7]: 480 nM | Drug uptake(free) [8]: 105 nM | Drug uptake(free) [9]: 240 nM | Cp(f) [10]: 47 nM
Compound: Cc1cc(C)c2c(n1)CN(C(=O)CC1CN(c3ccnc(C(F)(F)F)c3)C1)C2 [EMRACLIDINE]
